Results on seven compounds are retold here after US9688691B2, “Macrocyclic quinazole derivatives and their use as MTKI” (Janssen Pharmaceutica NV, priority 2004, dated 2017).

One series has as its target Abl (h) (Homo sapiens, UniProt P00519). In words: Kinase profiling, glass-fiber filter technology: Abl. The format is biochemical. The conditions noted are these: test concentration of 10^−6 M; read-out: Abl inhibition score. The method, then:
(§1) The in vitro inhibition of a panel of kinases was assessed using the glass-fiber filter technology as described by Davies, S. P. et al., Biochem J. (2000), 351; p. 95-105.
(§2) In the glass-fiber filter technology the activity of the kinase of interest is measured using an appropriate substrate that is incubated with the aforementioned kinase protein in the presence of (^33P) radiolabeled ATP. (^33P) Phosporylation of the substrate is subsequently measured as radioactivity bound on a glassfiber-filter.
(§3) All kinases are pre-diluted to a 10× working concentration prior to addition into the assay. The composition of the dilution buffer for each kinase is detailed below.
(§4) All substrates are dissolved and diluted to working stocks in de-ionised water.
(§5) In a final reaction volume of 25 μl, Abl (h) (5-10 mU) is incubated with 8 mM MOPS pH 7.0, 0.2 mM EDTA, 50 μM EAIYAAPFAKKK, 10 mM MgAcetate and [γ-^33P-ATP] (specific activity approx. 500 cpm/pmol, concentration as required). The reaction is initiated by the addition of the MgATP mix. After incubation for 40 minutes at room temperature, the reaction is stopped by the addition of 5 μl of a 3% phosphoric acid solution. 10 μl of the reaction is then spotted onto a P30 filtermat and washed three times for 5 minutes in 75 mM phosphoric acid and once in methanol prior to drying and scintillation counting.

The target of another series is CDK6/cyclinD3 human (Homo sapiens, UniProt Q00534). In words: Kinase profiling, glass-fiber filter technology: CDK6/cyclinD3. In kind it is biochemical. The note with it: test concentration of 10^−6 M; read-out: CDK6/cyclinD3 inhibition score. The method, then: as §1, §2, §3, §4
Chain of CDK6/cyclinD3 human (Q00534 whole entry): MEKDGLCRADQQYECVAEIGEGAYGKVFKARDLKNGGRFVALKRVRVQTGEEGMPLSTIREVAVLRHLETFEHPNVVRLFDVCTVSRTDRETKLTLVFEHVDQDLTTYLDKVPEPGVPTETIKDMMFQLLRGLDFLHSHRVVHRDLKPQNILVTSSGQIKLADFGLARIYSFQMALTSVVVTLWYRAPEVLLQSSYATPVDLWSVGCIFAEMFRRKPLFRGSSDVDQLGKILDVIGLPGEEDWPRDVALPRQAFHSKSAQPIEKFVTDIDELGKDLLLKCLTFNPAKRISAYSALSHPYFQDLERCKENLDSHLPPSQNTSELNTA
Chain of CDK6/cyclinD3 human (P30281 whole entry partner): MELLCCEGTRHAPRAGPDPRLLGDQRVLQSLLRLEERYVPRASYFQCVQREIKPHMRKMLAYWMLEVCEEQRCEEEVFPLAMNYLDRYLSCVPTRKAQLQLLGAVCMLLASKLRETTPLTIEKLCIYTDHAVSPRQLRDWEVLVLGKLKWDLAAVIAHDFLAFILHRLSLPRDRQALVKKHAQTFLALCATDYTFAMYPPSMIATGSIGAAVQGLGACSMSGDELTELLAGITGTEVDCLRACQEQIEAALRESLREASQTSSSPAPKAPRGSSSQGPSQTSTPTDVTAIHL
as §5, with “CDK6/cyclinD3 human” for “Abl (h)”, “0.1 mg/ml histone H1,” for “50 μM EAIYAAPFAKKK,”

In another series the target is CDK5/p35 human (Homo sapiens, UniProt Q00535). In words: Kinase profiling, glass-fiber filter technology: CDK5/p35. The format is biochemical. The note with it: test concentration of 10^−6 M; read-out: CDK5/p35 inhibition score. The method, then:
as §1, §2, §3, §4
as §5, with “CDK5/p35 human” for “Abl (h)”, “0.1 mg/ml histone H1,” for “50 μM EAIYAAPFAKKK,”

Chain of Abl (h) (P00519 whole entry): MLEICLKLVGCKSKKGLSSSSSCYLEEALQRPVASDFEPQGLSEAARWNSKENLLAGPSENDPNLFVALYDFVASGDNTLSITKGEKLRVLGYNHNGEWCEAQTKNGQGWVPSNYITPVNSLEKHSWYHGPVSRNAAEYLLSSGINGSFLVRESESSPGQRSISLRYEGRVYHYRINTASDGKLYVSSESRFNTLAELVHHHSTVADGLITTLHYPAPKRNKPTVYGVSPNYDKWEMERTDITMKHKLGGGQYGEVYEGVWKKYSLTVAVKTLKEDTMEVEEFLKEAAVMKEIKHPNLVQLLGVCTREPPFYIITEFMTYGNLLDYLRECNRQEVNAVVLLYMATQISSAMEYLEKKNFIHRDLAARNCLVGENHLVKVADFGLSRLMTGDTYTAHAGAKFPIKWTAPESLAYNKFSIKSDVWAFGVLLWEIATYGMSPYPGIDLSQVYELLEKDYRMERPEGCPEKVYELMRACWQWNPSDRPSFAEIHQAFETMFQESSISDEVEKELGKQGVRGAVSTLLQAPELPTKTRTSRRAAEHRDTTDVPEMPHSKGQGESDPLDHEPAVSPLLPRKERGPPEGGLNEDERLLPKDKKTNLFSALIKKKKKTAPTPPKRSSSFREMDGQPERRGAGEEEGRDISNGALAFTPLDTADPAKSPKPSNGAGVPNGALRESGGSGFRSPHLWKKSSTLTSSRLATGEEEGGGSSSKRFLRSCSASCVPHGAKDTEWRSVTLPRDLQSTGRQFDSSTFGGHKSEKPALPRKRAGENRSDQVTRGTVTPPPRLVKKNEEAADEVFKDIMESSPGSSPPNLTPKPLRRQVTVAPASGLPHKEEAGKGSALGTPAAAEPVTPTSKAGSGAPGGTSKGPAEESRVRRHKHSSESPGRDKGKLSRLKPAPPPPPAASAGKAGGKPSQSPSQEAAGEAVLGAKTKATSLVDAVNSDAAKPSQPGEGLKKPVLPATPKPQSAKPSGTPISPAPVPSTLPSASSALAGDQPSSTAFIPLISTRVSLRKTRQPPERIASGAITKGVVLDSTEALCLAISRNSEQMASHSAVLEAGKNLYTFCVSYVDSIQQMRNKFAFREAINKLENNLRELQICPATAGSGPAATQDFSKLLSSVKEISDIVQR
Chain of CDK5/p35 human (Q00535 whole entry): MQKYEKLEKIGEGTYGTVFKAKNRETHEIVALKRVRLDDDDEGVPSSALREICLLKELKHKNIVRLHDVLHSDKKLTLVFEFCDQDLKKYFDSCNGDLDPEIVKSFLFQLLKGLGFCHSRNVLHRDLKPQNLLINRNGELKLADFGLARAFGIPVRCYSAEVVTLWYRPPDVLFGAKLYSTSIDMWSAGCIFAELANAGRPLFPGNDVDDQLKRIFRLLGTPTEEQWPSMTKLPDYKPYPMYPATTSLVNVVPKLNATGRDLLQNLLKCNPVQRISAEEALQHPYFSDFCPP
Chain of CDK5/p35 human (Q15078 whole entry partner): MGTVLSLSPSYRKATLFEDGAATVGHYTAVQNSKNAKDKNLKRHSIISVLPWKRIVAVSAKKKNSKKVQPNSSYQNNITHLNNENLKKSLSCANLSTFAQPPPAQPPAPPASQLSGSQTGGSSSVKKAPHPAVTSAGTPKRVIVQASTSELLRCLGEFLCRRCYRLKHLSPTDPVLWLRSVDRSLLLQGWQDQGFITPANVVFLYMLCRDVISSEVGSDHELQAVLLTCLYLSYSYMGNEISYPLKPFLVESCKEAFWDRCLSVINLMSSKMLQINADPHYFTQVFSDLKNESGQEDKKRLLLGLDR

The compound `CC(=O)NCCNCCCOc1cc2ncnc3c2cc1OCCCNC(=O)[C@H](C)N(C)Cc1cc(F)c(Cl)cc1N3` [Compound 4] showed a melting point of 112 °C.
For `CN1CCCCCOc2cc3c(ncnc3cc2OC[C@H](O)CNCCOCCO)Nc2cc(Cl)c(F)cc2C1` [Compound 17], the inhibition at 1 µM on Abl (h) was over 80%.
Regarding `CC(=O)NCCN1CCN(CCCOc2cc3ncnc4c3cc2OCCCNC(=O)[C@H](C)N(C)Cc2cc(F)c(Cl)cc2N4)CC1` [Compound 6], the melting point came out at 136 °C. In addition, the inhibition at 1 µM on Abl (h) is over 80%.
Take `COCCOCCOc1cc2ncnc3c2cc1OCCCCCN(C)Cc1ccc(Br)cc1N3` [Int. 43]: the results for the inhibition at 1 µM at Abl (h) and on CDK6/cyclinD3 human were 60 to 80% and 10 to 30%, respectively.
As to `COc1cc2ncnc3c2cc1OCCCN(CCCN1CCOCC1)C(=O)[C@H](CC(C)C)NC(=O)Cc1ccc(Br)cc1N3` [Int. 25], the inhibition at 1 µM on Abl (h) is 10 to 30%.
In the case of `COc1cc2ncnc3c2cc1OCCCN(CCN1CCOCC1)C(=O)CNC(=O)Cc1ccc(Cl)cc1N3` [Compound 15], the values for the inhibition at 1 µM at Abl (h) and at CDK5/p35 human were over 80% and 10 to 30%, respectively.
As for `CN1CCCCCOc2cc3c(ncnc3cc2OCCCNCCS(C)(=O)=O)Nc2cc(Cl)c(F)cc2C1` [Compound 18], on Abl (h), the inhibition at 1 µM was over 80%.
